Like-named read-outs stand apart in the source and are kept apart here.
Key:
PARG = PARG (Homo sapiens, UniProt Q86W56); test: Biochemical assay (PARG, TFMU-ADPr substrate)
HCC1806 = test: Cell viability assay (CellTiter-Glo); assay type: cell-based, Human; settings: HCC1806, 7 days, CellTiter-Glo, read-out: IC50 (nM) in cell viability assay
[1] = 4 nM PARG, 66.2 uM TFMU-ADPr, 3 min at room temperature

Chain of PARG (Q86W56 whole entry): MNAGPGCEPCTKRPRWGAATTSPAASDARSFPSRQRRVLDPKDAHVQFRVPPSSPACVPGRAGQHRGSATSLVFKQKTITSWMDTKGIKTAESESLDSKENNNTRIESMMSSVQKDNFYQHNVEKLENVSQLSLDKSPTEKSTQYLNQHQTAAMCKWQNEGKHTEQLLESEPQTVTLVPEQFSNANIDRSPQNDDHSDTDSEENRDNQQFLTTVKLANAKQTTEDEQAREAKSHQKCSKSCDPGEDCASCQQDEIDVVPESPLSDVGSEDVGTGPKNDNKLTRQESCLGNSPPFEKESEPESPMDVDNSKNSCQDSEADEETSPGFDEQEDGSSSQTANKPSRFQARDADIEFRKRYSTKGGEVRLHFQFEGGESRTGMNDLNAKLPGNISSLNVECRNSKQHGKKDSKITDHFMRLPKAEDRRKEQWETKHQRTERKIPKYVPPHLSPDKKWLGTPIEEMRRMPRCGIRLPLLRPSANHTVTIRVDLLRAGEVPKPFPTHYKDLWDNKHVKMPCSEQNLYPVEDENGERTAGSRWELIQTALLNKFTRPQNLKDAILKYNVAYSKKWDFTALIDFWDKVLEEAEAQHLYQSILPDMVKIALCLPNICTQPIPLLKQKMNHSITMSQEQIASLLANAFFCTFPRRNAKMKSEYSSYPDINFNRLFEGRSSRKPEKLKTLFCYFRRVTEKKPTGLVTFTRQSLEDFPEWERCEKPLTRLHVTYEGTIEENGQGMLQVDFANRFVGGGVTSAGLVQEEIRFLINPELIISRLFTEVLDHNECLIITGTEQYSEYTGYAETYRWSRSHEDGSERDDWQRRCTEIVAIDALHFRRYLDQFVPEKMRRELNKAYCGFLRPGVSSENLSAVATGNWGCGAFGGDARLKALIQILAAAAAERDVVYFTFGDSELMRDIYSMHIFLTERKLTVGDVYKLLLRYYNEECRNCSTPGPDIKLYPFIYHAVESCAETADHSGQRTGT

Row | Structure (SMILES) | IC50 (PARG; PARG, TFMU-ADPr substrate) [nM] | IC50 (HCC1806; Homo sapiens, HCC1806, 168 h) [nM] | IC50 (PARG; [1]) [nM] | IC50 (HCC1806) [nM]
1 | N#CC1(NS(=O)(=O)c2cc(N3CCN(C(=O)C4(F)CNC4)CC3)c3cnc(-c4nnc(C(F)(F)F)s4)n3c2)CC1 [Example 278, N-(1-cyanocyclopropyl)-8-(4-(3-fluoroazetidine-3-carbonyl)piperazin-1-yl)-3-(5-(trifluoromethyl)-1,3,4-thiadiazol-2-yl)imidazo[1,5-a]pyridine-6-sulfonamide] | 40.7 | 1980 |  | 
2 | C[C@H]1CN(c2cc(S(=O)(=O)NC3(C)COC3)cn3c(-c4nnc(C(F)F)s4)nc(Cl)c23)C[C@H](C)N1 [Example 126, 1-chloro-3-(5-(difluoromethyl)-1,3,4-thiadiazol-2-yl)-8-((3S,5S)-3,5-dimethylpiperazin-1-yl)-N-(3-methyloxetan-3-yl)imidazo[1,5-a]pyridine-6-sulfonamide] | 5.34 | 602 |  | 
3 | CC(C)C(=O)NC1CCN(c2cc(S(=O)(=O)NC3(C#N)CC3)cn3c(-c4nnc(C(F)(F)F)s4)ncc23)CC1 [Example 268, N-(1-(6-(N-(1-cyanocyclopropyl)sulfamoyl)-3-(5-(trifluoromethyl)-1,3,4-thiadiazol-2-yl)imidazo[1,5-a]pyridin-8-yl)piperidin-4-yl)isobutyramide] | 100 | 2210 |  | 
4 | CC1(NS(=O)(=O)c2cc(N3CCN[C@@H](CO)C3)c3cnc(-c4nnc(C(F)F)s4)n3c2)COC1 [Example 178, (R)-3-(5-(difluoromethyl)-1,3,4-thiadiazol-2-yl)-8-(3-(hydroxymethyl)piperazin-1-yl)-N-(3-methyloxetan-3-yl)imidazo[1,5-a]pyridine-6-sulfonamide] | 1.18 | 945 |  | 
5 | Cn1nccc1C1C=C(c2cc(S(=O)(=O)NC3(C#N)CC3)cn3c(-c4nnc(C(F)F)s4)nnc23)CC1 (centres unmarked) [Example 367, N-(1-cyanocyclopropyl)-3-(5-(difluoromethyl)-1,3,4-thiadiazol-2-yl)-8-(3-(1-methyl-1H-pyrazol-5-yl)cyclopent-1-en-1-yl)-[1,2,4]triazolo[4,3-a]pyridine-6-sulfonamide] | 32.8 | 5000 to 30000 | < 100 | 6780
6 | CC1(C(=O)N2CCN(c3cc(S(=O)(=O)NC4(C#N)CC4)cn4c(-c5nnc(C(F)(F)F)s5)ncc34)CC2)CC1 [Example 225, N-(1-cyanocyclopropyl)-8-(4-(1-methylcyclopropane-1-carbonyl)piperazin-1-yl)-3-(5-(trifluoromethyl)-1,3,4-thiadiazol-2-yl)imidazo[1,5-a]pyridine-6-sulfonamide] | 7.94 | 600 |  | 
7 | CC1(NS(=O)(=O)c2cc(N3CCN(C(=O)C4(F)CNC4)CC3)c3cnc(-c4nnc(C(F)(F)F)s4)n3c2)CC1 [Example 317, 8-(4-(3-fluoroazetidine-3-carbonyl)piperazin-1-yl)-N-(1-methylcyclopropyl)-3-(5-(trifluoromethyl)-1,3,4-thiadiazol-2-yl)imidazo[1,5-a]pyridine-6-sulfonamide] | 3.54 | 1140 |  | 
8 | Cn1nccc1C1CCC(c2cc(S(=O)(=O)NC3(C#N)CC3)cn3c(-c4nnc(C(F)F)s4)nnc23)C1 (centres unmarked) [Example 378, N-(1-cyanocyclopropyl)-3-(5-(difluoromethyl)-1,3,4-thiadiazol-2-yl)-8-(3-(1-methyl-1H-pyrazol-5-yl)cyclopentyl)-[1,2,4]triazolo[4,3-a]pyridine-6-sulfonamide] | 27.7 | 5000 to 30000 | < 100 | 6000
9 | CN1CC[C@@H]1C(=O)N1CCN(c2cc(S(=O)(=O)NC3(C)CC3)cn3c(-c4nnc(C(F)F)s4)ncc23)CC1 [Example 309, (R)-3-(5-(difluoromethyl)-1,3,4-thiadiazol-2-yl)-8-(4-(1-methylazetidine-2-carbonyl)piperazin-1-yl)-N-(1-methylcyclopropyl)imidazo[1,5-a]pyridine-6-sulfonamide] | 1.03 | 570 |  | 
10 | N#CC1(NS(=O)(=O)c2ccc3c(C4=CC5(CC4)CN(C(=O)C4CC4(F)F)C5)nc(-c4nnc(C(F)(F)F)s4)n3c2)CC1 (centres unmarked) [Example 232, N-(1-cyanocyclopropyl)-1-(2-(2,2-difluorocyclopropane-1-carbonyl)-2-azaspiro[3.4]oct-5-en-6-yl)-3-(5-(trifluoromethyl)-1,3,4-thiadiazol-2-yl)imidazo[1,5-a]pyridine-6-sulfonamide] | 31.6 | 953 |  | 

Now from value to molecule:

Row | IC50 (PARG; PARG, TFMU-ADPr substrate) [nM] | IC50 (HCC1806; Homo sapiens, HCC1806, 168 h) [nM] | IC50 (PARG; [1]) [nM] | IC50 (HCC1806) [nM] | Structure (SMILES)
11 | 4.46 | 918 |  |  | CC1(NS(=O)(=O)c2cc(N3CCN(C(=O)[C@@H]4CCCN4)CC3)c3cnc(-c4nnc(C(F)(F)F)s4)n3c2)CC1 [Example 316, (S)-N-(1-methylcyclopropyl)-8-(4-prolylpiperazin-1-yl)-3-(5-(trifluoromethyl)-1,3,4-thiadiazol-2-yl)imidazo[1,5-a]pyridine-6-sulfonamide]
12 | 7.24 | 5410 |  |  | N#CC1(NS(=O)(=O)c2cc(N3CCN(C(=O)[C@H]4CCNC4)CC3)c3cnc(-c4nnc(C(F)(F)F)s4)n3c2)CC1 [Example 272, (S)-N-(1-cyanocyclopropyl)-8-(4-(pyrrolidine-3-carbonyl)piperazin-1-yl)-3-(5-(trifluoromethyl)-1,3,4-thiadiazol-2-yl)imidazo[1,5-a]pyridine-6-sulfonamide]
13 | 66.1 | 229 |  |  | N#CC1(NS(=O)(=O)c2cc(N3CCN(C(=O)C4NCCS4)CC3)c3cnc(-c4nnc(C(F)(F)F)s4)n3c2)CC1 (centres unmarked) [Example 281, N-(1-cyanocyclopropyl)-8-(4-(thiazolidine-2-carbonyl)piperazin-1-yl)-3-(5-(trifluoromethyl)-1,3,4-thiadiazol-2-yl)imidazo[1,5-a]pyridine-6-sulfonamide]
14 | 3.31 | 21.1 |  |  | COC1(C(=O)N2CCC(c3cc(S(=O)(=O)NC4(C#N)CC4)cn4c(-c5nnc(C(F)(F)F)s5)ncc34)CC2)CC1 [Example 373, N-(1-cyanocyclopropyl)-8-(1-(1-methoxycyclopropane-1-carbonyl)piperidin-4-yl)-3-(5-(trifluoromethyl)-1,3,4-thiadiazol-2-yl)imidazo[1,5-a]pyridine-6-sulfonamide]
15 | 32 | 723 |  |  | CC1(NS(=O)(=O)c2cc(N3CCN[C@H](CF)C3)c3cnc(-c4nnc(C(F)F)s4)n3c2)COC1 [Example 191, (S)-3-(5-(difluoromethyl)-1,3,4-thiadiazol-2-yl)-8-(3-(fluoromethyl)piperazin-1-yl)-N-(3-methyloxetan-3-yl)imidazo[1,5-a]pyridine-6-sulfonamide]
16 | 75.9 | 6640 |  |  | N#CC1(NS(=O)(=O)c2cc(N3CCN(C(=O)[C@H]4CCN4)CC3)c3cnc(-c4nnc(C(F)(F)F)s4)n3c2)CC1 [Example 264, (R)-8-(4-(azetidine-2-carbonyl)piperazin-1-yl)-N-(1-cyanocyclopropyl)-3-(5-(trifluoromethyl)-1,3,4-thiadiazol-2-yl)imidazo[1,5-a]pyridine-6-sulfonamide]
17 | 0.68 | 241 |  |  | CN1CC(C)(C(=O)N2CCN(c3cc(S(=O)(=O)NC4(C)CC4)cn4c(-c5nnc(C(F)(F)F)s5)ncc34)CC2)C1 [Example 314, 8-(4-(1,3-dimethylazetidine-3-carbonyl)piperazin-1-yl)-N-(1-methylcyclopropyl)-3-(5-(trifluoromethyl)-1,3,4-thiadiazol-2-yl)imidazo[1,5-a]pyridine-6-sulfonamide]

Source: patent publication US20260258035A1, “FIVE-MEMBERED AND SIX-MEMBERED NITROGEN-CONTAINING COMPOUND, AND INTERMEDIATE, PREPARATION METHOD AND USE THEREOF” (HANGZHOU SYNRX THERAPEUTICS BIOMEDICAL TECHNOLOGY CO., LTD., priority 2022, published 2026)
